Results as given in ChEMBL document CHEMBL1201862, “PubChem BioAssay data set” (2004).
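Cells were grown in 96-well plates and exposed to each compound for 48 hours at five concentrations; endpoints were interpolated linearly between bracketing concentrations, or set to the highest concentration if not reached. Here, GI50 denotes the concentration required for 50% inhibition of growth.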 The source made the active and inactive calls. No stated cut-off is given here; in the data, active = GI50 up to about 1.1 µM and inactive = higher. Starred links: 1 amine or outer side, 2 acyl side, 3 side chain; linkers in the order of their positions; H or OH if unused. Residues, ends and D or L forms follow the SMILES beside them. *: point of attachment. γGlu = O=C(O)[CH](CCC(=O)[*:2])N[*:1]; NHOH = ON*

Key:
Experiment in all cases: NCI tumour cell line growth inhibition, 48 h
T47D = tested on: T47D
SF-539 = tested on: SF-539
CCRF-CEM = tested on: CCRF-CEM
SF-295 = tested on: SF-295
NCI-H23 = tested on: NCI-H23
HL-60 = tested on: HL-60
HOP-92 = tested on: HOP-92
HT-29 = tested on: HT-29
MDA-N = tested on: MDA-N
BT-549 = tested on: BT-549
HOP-62 = tested on: HOP-62
COLO 205 = tested on: COLO 205
UO-31 = tested on: UO-31
HCT-15 = tested on: HCT-15
A498 = tested on: A498
DU-145 = tested on: DU-145
KM12 = tested on: KM12
OVCAR-3 = tested on: OVCAR-3
SN12C = tested on: SN12C
Hs-578T = tested on: Hs-578T

| SMILES | GI50 (T47D) | GI50 (SF-539) | GI50 (CCRF-CEM) | GI50 (SF-295) | GI50 (NCI-H23) | GI50 (HL-60) | GI50 (HOP-92) | GI50 (HT-29) | GI50 (MDA-N) | GI50 (BT-549) | GI50 (HOP-62) | GI50 (COLO 205) | GI50 (UO-31) | GI50 (HCT-15) [µM] | GI50 (A498) | GI50 (DU-145) | GI50 (KM12) | GI50 (OVCAR-3) | GI50 (SN12C) | GI50 (Hs-578T) |
| --- | --- | --- | --- | --- | --- | --- | --- | --- | --- | --- | --- | --- | --- | --- | --- | --- | --- | --- | --- | --- |
| CCOC(=O)CNC(=O)C(CCC(=O)NO)NC(=O)CCC(N)C(=O)O (stereo not given) (γGlu-Glu(NHOH)-Gly-OEt; configuration not given here) | > 100 µM (inactive) | > 100 µM (inactive) | > 100 µM (inactive) | > 100 µM (inactive) | > 100 µM (inactive) | > 100 µM (inactive) | > 100 µM (inactive) | > 100 µM (inactive) | > 100 µM (inactive) | > 100 µM (inactive) | > 100 µM (inactive) | > 100 µM (inactive) | > 100 µM (inactive) | > 100 | > 100 µM (inactive) | > 100 µM (inactive) | > 100 µM (inactive) | > 100 µM (inactive) | > 100 µM (inactive) | > 100 µM (inactive) |
| C/C(=C\CBr)CCC(Br)C(C)(C)Br (stereo not given) | > 100 µM (inactive) | > 100 µM (inactive) | > 100 µM (inactive) | > 100 µM (inactive) | > 100 µM (inactive) | > 100 µM (inactive) | > 100 µM (inactive) | > 100 µM (inactive) | > 100 µM (inactive) | > 100 µM (inactive) | > 100 µM (inactive) | > 100 µM (inactive) | > 100 µM (inactive) | > 100 | > 100 µM (inactive) | > 100 µM (inactive) | > 100 µM (inactive) | > 100 µM (inactive) | > 100 µM (inactive) | > 100 µM (inactive) |
| C=C1[C@H](OCC(C)C)[C@@H](O)[C@@H](OC(=O)c2cccnc2)C(C)(C)/C=C/[C@H](C)[C@H](OC(C)=O)[C@@]2(O)C[C@@](C)(OC(C)=O)[C@H](OC(=O)c3ccccc3)[C@@H]2[C@H]1OC(C)=O | > 2.96 µM (inactive) | 0.482 µM (active) | 0.133 µM (active) | 0.371 µM (active) | 1.95 µM (inactive) | 0.0695 µM (active) | 0.723 µM (active) | 0.0662 µM (active) | 0.451 µM (active) | 1.66 µM (inactive) | 0.0681 µM (active) | 0.0713 µM (active) | 0.54 µM (active) | 1.16 | 0.482 µM (active) | 1.91 µM (inactive) | 1.34 µM (inactive) | 1.12 µM (active) | > 3.1 µM (inactive) | 0.0895 µM (active) |
| COC(=O)C(I(OS(=O)(=O)c1ccc(C)cc1)c1ccccc1)=P(c1ccccc1)(c1ccccc1)c1ccccc1 | 15.9 µM (inactive) | 19.4 µM (inactive) | 10.3 µM (inactive) | 30.1 µM (inactive) | 16.8 µM (inactive) | 15.1 µM (inactive) | 14.7 µM (inactive) | 20.6 µM (inactive) | 14.1 µM (inactive) | 21.2 µM (inactive) | 19.3 µM (inactive) | 3.13 µM (inactive) | 22.2 µM (inactive) | 35.3 | 18.2 µM (inactive) | 15.9 µM (inactive) | 19.5 µM (inactive) | 16.4 µM (inactive) | 43.2 µM (inactive) | 24.7 µM (inactive) |
